This is an account of results in patent publication US7625912B2, “Mitotic kinesin inhibitors” (Merck & Co. Inc, priority 2003, dated 2009).

For this test, the target named is T1, human KSP motor domain (KSP(367H)) (Homo sapiens, UniProt P52732).
T1 construct: were used to amplify the motor domain and the neck linker region; made in house; host or cells: E. coli BL21 (DE3), pRSETa vector
T1 sequence (P52732 18-359 limits assumed): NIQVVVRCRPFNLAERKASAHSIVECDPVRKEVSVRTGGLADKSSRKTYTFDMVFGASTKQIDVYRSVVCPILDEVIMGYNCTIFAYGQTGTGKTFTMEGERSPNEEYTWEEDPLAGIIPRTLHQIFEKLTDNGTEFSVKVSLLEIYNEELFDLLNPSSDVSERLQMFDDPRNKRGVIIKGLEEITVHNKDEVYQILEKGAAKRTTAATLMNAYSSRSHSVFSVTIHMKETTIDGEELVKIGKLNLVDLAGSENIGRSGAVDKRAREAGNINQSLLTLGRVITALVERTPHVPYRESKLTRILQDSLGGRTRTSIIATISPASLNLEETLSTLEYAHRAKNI
In words: Kinesin ATPase in vitro assay. It is filed as biochemical. The following applies: microtubules, 1 mM ATP, 23° C.; free phosphate by quinaldine red/ammonium molybdate, absorbance 540 nm. The source says:
I. Kinesin ATPase In Vitro Assay
Cloning and Expression of Human Poly-Histidine Tagged KSP Motor Domain (KSP(367H))
Plasmids for the expression of the human KSP motor domain construct were cloned by PCR using a pBluescript full length human KSP construct (Blangy et al., Cell, vol. 83, pp 1159-1169, 1995) as a template. The N-terminal primer 5′-[…] (SEQ.ID.NO.: 1) and the C-terminal primer 5′-[…] […] (SEQ.ID.NO.: 2) were used to amplify the motor domain and the neck linker region. The PCR products were digested with AseI and XhoI, ligated into the NdeL/XhoI digestion product of pRSETa (Invitrogen) and transformed into E. coli BL21 (DE3).
Cells were grown at 37° C. to an OD600 of 0.5. […]
The kinesin motor domain is incubated with microtubules, 1 mM ATP (1:1 MgCl2: Na-ATP), and compound at 23° C. in buffer containing 80 mM K-HEPES (pH 7.0), 1 mM EGTA, 1 mM DTT, 1 mM MgCl2, and 50 mM KCl. […] Free phosphate from the ATP hydrolysis reaction is measured via a quinaldine red/ammonium molybdate assay by adding 150 μl of quench C buffer containing a 2:1 ratio of quench A:quench B. Quench A contains 0.1 mg/ml quinaldine red and 0.14% polyvinyl alcohol; quench B contains 12.3 mM ammonium molybdate tetrahydrate in 1.15 M sulfuric acid. The reaction is incubated for 10 minutes at 23° C., and the absorbance of the phospho-molybdate complex is measured at 540 nm.

For orientation: IC50 means the point on the concentration scale where inhibition reaches its midpoint.

For the compound `Cc1ccc(-n2c(-c3ccccc3Br)nccc2=O)cc1F` [1-4, 2-(2-bromophenyl)-3-(3-fluoro-4-methylphenyl)pyrimidin-4(3H)-one], the IC50 was not above 50 µM.
